From US20200068890A1 (Person to Whom the Inventor is Obligated to Assign, priority 2017, published 2020)

Tested on: T1, A. thaliana DHDPS
T1 construct: AtDHDPS|10|0.00008; no borders, domain or tags given
Assay: DHDPS-DHDPR coupled assay, dose response inhibitor assay
Format: biochemical, Arabidopsis thaliana
Protocol: DHDPS enzyme activity was determined using the coupled assay in a Cary 4000 UV/Vis spectrophotometer at 340 nm in 1 cm acrylic cuvettes. A master mix was prepared for each reaction as per Table 1. Reaction mixtures containing enzymes, pyruvate, buffer and NADPH were incubated at 30° C. for 12 mins before the addition of ASA to initiate the reaction. The oxidation of NADPH to NADP^+ was then monitored at 340 nm at 30° C. as a function of time. The initial rate (ΔA340·min^−1) was calculated from the slope of the linear portion of the A340 versus time profile. All experiments were carried out in triplicate. The enzyme kinetic parameters, including KM values, were determined using the Michaelis-Menten equation (Equation 1). Unless otherwise stated, all kinetic data were fitted using the built-in equations in GraphPad Prism.
To determine/C50 values for the inhibitors, A. thaliana DHDPS enzyme activity was measured using the coupled assay (detailed above) in the presence of increasing concentrations of inhibitor. The initial rate was then plotted as a function of the log 10 of the inhibitor concentration and the/C50 determined according to Equation 2.

IC50 [µM]	Structure (SMILES)
> 250	COc1ccc(CC2SC(=O)N(CC(=O)O)C2=O)cc1 (stereo not shown) [Compound 52]
540	COc1ccc(/C=C2\SC(=S)N(CC(=O)O)C2=O)cc1 [Compound 43, (Z)-2-(5-(4-Methoxybenzylidene)-4-oxo-2-thioxothiazolidin-3-yl)acetic Acid]
222	COc1ccc(/C=C2\NC(=S)N(CC(=O)O)C2=O)cc1 [Compound 44, (Z)-2-(4-(4-Methoxybenzylidene)-5-oxo-2-thioxoimidazolidin-1-yl)acetic Acid]
138	O=C(O)CN1C(=O)S/C(=C\c2cccnc2)C1=O [Compound 35, (Z)-2-(2,4-Dioxo-5-(pyridin-3-ylmethylene)thiazolidin-3-yl)acetic Acid]
173	COc1ccc(/C=C2\SC(=O)N(CC(=O)O)C2=O)c(OC)c1 [Compound 17, (Z)-2-(5-(2,4-Dimethoxybenzylidene)-2,4-dioxothiazolidin-3-yl)acetic Acid]
103	O=C(O)CN1C(=O)S/C(=C\c2ccc(O)cc2)C1=O [Compound 12, (Z)-2-(5-(4-Hydroxybenzylidene)-2,4-dioxothiazolidin-3-yl)acetic Acid]
> 250	COc1ccc(/C=C2\SC(=S)NC2=O)cc1 [Compound 46, (Z)-5-(4-Methoxybenzylidene)-2-thioxothiazolidin-4-one]
71.4	O=C(O)CN1C(=O)S/C(=C\c2ccc(OCc3ccccc3)cc2)C1=O [Compound 41]
74	O=C(O)CN1C(=O)S/C(=C\c2ccc(Br)cc2)C1=O [Compound 9, (Z)-2-(5-(4-Bromobenzylidene)-2,4-dioxothiazolidin-3-yl)acetic Acid]
70.8	COc1ccc(/C=C2\SC(=O)NC2=O)cc1 [Compound 45, (Z)-5-(4-Methoxybenzylidene)thiazolidine-2,4-dione]
> 500	CN(C)c1ccc(/C=C2\SC(=O)N(CC(=O)O)C2=O)cc1 [Compound 33, (Z)-2-(5-(4-(Dimethylamino)benzylidene)-2,4-dioxothiazolidin-3-yl)acetic Acid]
46	COc1ccc(/C=C2\SC(=O)N(CC(=O)O)C2=O)cn1 [Compound 37, (Z)-2-(5-((6-Methoxypyridin-3-yl)methylene)-2,4-dioxothiazolidin-3-yl)acetic Acid]
68.4	CC(=O)Nc1ccc(/C=C2\SC(=O)N(CC(=O)O)C2=O)cc1 [Compound 20, (Z)-2-(5-(4-Acetamidobenzylidene)-2,4-dioxothiazolidin-3-yl)acetic Acid]
156	COc1ccc(/C=C2\SC(=N)NC2=O)cc1 [Compound 48, (Z)-2-Imino-5-(4-methoxybenzylidene)thiazolidin-4-one]
116	COc1ccc(/C=C2\SC(=O)N(CC(=O)O)C2=O)cc1OC [Compound 23, 2-(5-(3,4-Dimethoxybenzylidene)-2,4-dioxothiazolidin-3-yl)acetic Acid]
137	O=C(O)CN1C(=O)S/C(=C\c2ccccc2Cl)C1=O [Compound 6, (Z)-2-(5-(2-Chlorobenzylidene)-2,4-dioxothiazolidin-3-yl)acetic Acid]
80.1	Cc1ccc(/C=C2\SC(=O)N(CC(=O)O)C2=O)cc1 [Compound 10, (Z)-2-(5-(4-Methylbenzylidene)-2,4-dioxothiazolidin-3-yl)acetic Acid]
125	CSc1ccc(/C=C2\SC(=O)N(CC(=O)O)C2=O)cc1 [Compound 28, (Z)-2-(5-(4-(Methylthio)benzylidene)-2,4-dioxothiazolidin-3-yl)acetic Acid]
79.7	O=C(O)CN1C(=O)S/C(=C\c2ccccc2O)C1=O [Compound 14, (Z)-2-(5-(2-Hydroxybenzylidene)-2,4-dioxothiazolidin-3-yl)acetic Acid]
81.8	O=C(O)CN1C(=O)S/C(=C\c2ccsc2)C1=O [Compound 31, (Z)-2-(2,4-Dioxo-5-(thiophen-3-ylmethylene)thiazolidin-3-yl)acetic Acid]
121	O=C(O)CN1C(=O)S/C(=C\c2cccc(Cl)c2)C1=O [Compound 7, (Z)-2-(5-(3-Chlorobenzylidene)-2,4-dioxothiazolidin-3-yl)acetic Acid]
323	COc1ccc(/C=C2\NC(=S)NC2=O)cc1 [Compound 47, (Z)-5-(4-Methoxybenzylidene)-2-thioxoimidazolidin-4-one]
153	Nc1ccc(/C=C2\SC(=O)N(CC(=O)O)C2=O)cc1 [Compound 11, (Z)-2-(5-(4-Aminobenzylidene)-2,4-dioxothiazolidin-3-yl)acetic Acid]

IC50 [µM]	Structure (SMILES)
110	COc1cccc(/C=C2\SC(=O)N(CC(=O)O)C2=O)c1 [Compound 4, (Z)-2-(5-(3-Methoxybenzylidene)-2,4-dioxothiazolidin-3-yl)acetic Acid]
97.8	O=C(O)CN1C(=O)S/C(=C\c2ccc(OC(F)(F)F)cc2)C1=O [Compound 27, (Z)-2-(2,4-Dioxo-5-(4-(trifluoromethoxy)benzylidene)thiazolidin-3-yl)acetic Acid]
71.6	O=C(O)CN1C(=O)S/C(=C\c2cccs2)C1=O [Compound 30, (Z)-2-(2,4-Dioxo-5-(thiophen-2-ylmethylene)thiazolidin-3-yl)acetic Acid]
108	COc1cccc(/C=C2\SC(=O)N(CC(=O)O)C2=O)c1OC [Compound 22, 2-(5-(2,3-Dimethoxybenzylidene)-2,4-dioxothiazolidin-3-yl) acetic Acid]
89.1	COc1ccc(/C=C2\SC(=O)N(Cc3nnn[nH]3)C2=O)cc1 [Compound 49, (Z)-3-((1H-Tetrazol-5-yl)methyl)-5-(4-methoxybenzylidene)thiazolidine-2,4-dione]
80.4	O=C(O)CN1C(=O)S/C(=C\c2ccccn2)C1=O [Compound 34, (Z)-2-(2,4-Dioxo-5-(pyridin-2-ylmethylene)thiazolidin-3-yl)acetic Acid]
80.1	O=C(O)CN1C(=O)S/C(=C\c2ccccc2)C1=O [Compound 2, (Z)-2-(5-Benzylidene-2,4-dioxothiazolidin-3-yl)acetic Acid]
152	O=C(O)CN1C(=O)S/C(=C\c2cc([N+](=O)[O-])ccc2O)C1=O [Compound 15, (Z)-2-(5-(2-Hydroxy-5-nitrobenzylidene)-2,4-dioxothiazolidin-3-yl)acetic Acid]
125	O=C1NC(=O)/C(=C/c2ccccc2O)S1 [Compound 19, (Z)-5-(2-Hydroxybenzylidene)thiazolidine-2,4-dione]
71.6	CCOc1ccc(/C=C2\SC(=O)N(CC(=O)O)C2=O)cc1 [Compound 26, (Z)-2-(5-(4-Ethoxybenzylidene)-2,4-dioxothiazolidin-3-yl)acetic Acid]
122	O=C(O)CN1C(=O)S/C(=C\c2ccc(C(F)(F)F)cc2)C1=O [Compound 29, (Z)-2-(2,4-Dioxo-5-(4-(trifluoromethyl)benzylidene)thiazolidin-3-yl)acetic Acid]
97	O=C(O)CN1C(=O)S/C(=C\c2cccc3ccccc23)C1=O [Compound 38, (Z)-2-(5-(Naphthalen-1-ylmethylene)-2,4-dioxothiazolidin-3-yl)acetic Acid]
90.2	O=C(O)CN1C(=O)S/C(=C\c2ccncc2)C1=O [Compound 36, (Z)-2-(2,4-Dioxo-5-(pyridin-4-ylmethylene)thiazolidin-3-yl)acetic Acid]
> 250	COc1ccc(/C=C2\SC(=O)N(CCC(=O)O)C2=O)cc1 [Compound 50, (Z)-3-(5-(4-Methoxybenzylidene)-2,4-dioxothiazolidin-3-yl)propanoic Acid]
69.8	O=C(O)CN1C(=O)S/C(=C\c2ccc(C(=O)O)cc2)C1=O [Compound 25, (Z)-4-((3-(Carboxymethyl)-2,4-dioxothiazolidin-5-ylidene)methyl)benzoic Acid]
79.6	N#Cc1ccc(/C=C2\SC(=O)N(CC(=O)O)C2=O)cc1 [Compound 24, (Z)-2-(5-(4-Cyanobenzylidene)-2,4-dioxothiazolidin-3-yl)acetic Acid]
84.3	O=C(O)CN1C(=O)S/C(=C\c2ccc(Cl)cc2)C1=O [Compound 8, (Z)-2-(5-(4-Chlorobenzylidene)-2,4-dioxothiazolidin-3-yl)acetic Acid]
76.1	O=C(O)CN1C(=O)S/C(=C\c2ccc3ccccc3c2)C1=O [Compound 39, (Z)-2-(5-(Naphthalen-2-ylmethylene)-2,4-dioxothiazolidin-3-yl)acetic Acid]
127	COc1cccc(/C=C2\SC(=O)N(CC(=O)O)C2=O)c1O [Compound 16, (Z)-2-(5-(2-Hydroxy-3-methoxybenzylidene)-2,4-dioxothiazolidin-3-yl)acetic Acid]
66.8	COc1ccc(/C=C2\SC(=O)N(CCCC(=O)O)C2=O)cc1 [Compound 51, (Z)-4-(5-(4-Methoxybenzylidene)-2,4-dioxothiazolidin-3-yl)butanoic Acid]
110	O=C(O)CN1C(=O)S/C(=C\c2ccc3ccccc3n2)C1=O [Compound 40, 2-(2,4-Dioxo-5-(quinolin-2-ylmethylene)thiazolidin-3-yl)acetic Acid]
94	O=C(O)CN1C(=O)S/C(=C\c2c[nH]cn2)C1=O [Compound 32, (Z)-2-(5-((1H-Imidazol-4-yl)methylene)-2,4-dioxothiazolidin-3-yl)acetic Acid]
316	O=C(O)CN1C(=O)S/C(=C\c2ccc(O)c(Cl)c2)C1=O [Compound 13, (Z)-2-(5-(3-Chloro-4-hydroxybenzylidene)-2,4-dioxothiazolidin-3-yl)acetic Acid]
